Where “and” joins values, the source holds several entries; their conditions need not be identical. Equal values may be shown once. Marks after values point to notes of the source that are not given here.
Columns and labels:
[1] = target: T1, GluN1a–GluN2B ATD heterodimer (UniProt A0A1L8F5J9+Q00960, N348D/N350Q/N61Q); assay: ITC, ligands titrated into isolated GluN1a–GluN2B ATD heterodimer; type: binding, Xenopus GluN1a, rat GluN2B
T1 construct: the ATD domains of Xenopus GluN1a and rat GluN2B; alkaline phosphatase secretion signal (N); 57 residue linker to the other ATD, with TEV protease sites (cleaved yes); made in house
T1 sequence (Q00960 31-394 N348D limits assumed, other chains not shown): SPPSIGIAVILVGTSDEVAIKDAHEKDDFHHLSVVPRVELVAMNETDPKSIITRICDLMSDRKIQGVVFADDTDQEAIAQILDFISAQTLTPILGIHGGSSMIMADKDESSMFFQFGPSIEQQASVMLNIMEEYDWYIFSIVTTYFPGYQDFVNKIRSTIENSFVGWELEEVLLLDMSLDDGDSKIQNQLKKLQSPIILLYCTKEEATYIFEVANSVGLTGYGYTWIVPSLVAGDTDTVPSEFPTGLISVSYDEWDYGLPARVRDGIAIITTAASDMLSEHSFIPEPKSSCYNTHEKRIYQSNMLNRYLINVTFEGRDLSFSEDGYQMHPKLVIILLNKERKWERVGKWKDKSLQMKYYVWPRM
Excerpt: In order to directly estimate binding affinities of these inhibitors for their binding site in the GluN1–GluN2B NMDA receptors, we performed ITC using the purified GluN1a–GluN2B ATD proteins titrated with ligands of various N-substituent lengths at pH 7.6 and pH 6.5 to mimic the extreme drop in pH that can occur at the ischemic core[1]–[4] (Fig. 2a, b; Supplementary Figures 2 and 3). Toward this end, we expressed the isolated […] GluN1a–GluN2B ATD heterodimer proteins in GnTI^− HEK293S cells. Here, for clarity we will call the GluN1 ATD with and without exon 5 GluN1b ATD and GluN1a ATD, respectively.
To efficiently express the ATD domains of Xenopus GluN1a and rat GluN2B, we used the alkaline phosphatase secretion signal and fused the two domains with a 57 residue linker as described elsewhere, with the following modifications: due to an intrinsic thrombin site in the GluN2B ATD, we engineering Tobacco Etch Virus (TEV) protease sites into this construct to remove the linker. In addition, three glycosylation sites were removed by mutating GluN1a Asn61 and Asn371 to Gln, and GluN2B Asn348 was mutated to Asp.
Cell cultures were maintained at 37 °C with 5% CO2 and grown to a density of 2.0–2.5 × 10^6 cells mL^−1, then infected with baculovirus. Sodium butyrate was added to the infected cells to a final concentration of 5 mM and culture medium containing secreted GluN1a–GluN2B ATD fusion protein was harvested 96 h after infection.
Cells were removed from the medium by centrifugation and the clarified medium was concentrated and exchanged three times to cold TBS (200 mM NaCl, 20 mM Tris, pH 8.0) using tangential flow filtration with a molecular weight cutoff of 30 kDa (Pall Corporation). […] The following day, glutathione in a 10:1 ratio, reduced:oxidized, was added to the dialyzed protein to a final concentration of 3 mM, along with EDTA, pH 8.0, to a final concentration of 1 mM. Based on the protein yield, a 1:100 ratio of TEV protease (mass:mass, TEV:ATD) was added to the ATD solution and the reaction was incubated for 4 h at 18 °C. Next, EndoF1 endoglycosidase at a 1:5 ratio (mass:mass, EndoF1:ATD) was added to the ATD/TEV mixture and dialyzed overnight at room temperature to 2 L TBS with 10% glycerol and 20 mM imidazole.
This sample was then dialyzed overnight at 4 °C to 2 L TBS with 20% glycerol. […]
After dialysis, the protein sample was diluted to 10–15 μM and dimethyl sulfoxide (DMSO) was added to a final concentration of 1.5% (v/v), in order to match that of the ligand solution. […] Dilution enthalpy was calculated from post-saturation injections and subtracted from total heats, and the data were fit using a single-site model with the program OriginLab 7.5.

[2] = target: T2, GluN1-4a(H134A)/GluN2B NMDA receptor (Rattus norvegicus, UniProt P35439+Q00960, H134A); assay: TEVC concentration–response, GluN1-4a(H134A) mutant; type: cell-based; details: pH 7.6; BAPTA (Table 3)
T2 construct: compared to that observed for full-length receptors in TEVC recordings; expressed in transfected cells; host or cells: Xenopus laevis oocytes, cRNA injection
T2 sequence (Q00960 27-1482, other chains not shown): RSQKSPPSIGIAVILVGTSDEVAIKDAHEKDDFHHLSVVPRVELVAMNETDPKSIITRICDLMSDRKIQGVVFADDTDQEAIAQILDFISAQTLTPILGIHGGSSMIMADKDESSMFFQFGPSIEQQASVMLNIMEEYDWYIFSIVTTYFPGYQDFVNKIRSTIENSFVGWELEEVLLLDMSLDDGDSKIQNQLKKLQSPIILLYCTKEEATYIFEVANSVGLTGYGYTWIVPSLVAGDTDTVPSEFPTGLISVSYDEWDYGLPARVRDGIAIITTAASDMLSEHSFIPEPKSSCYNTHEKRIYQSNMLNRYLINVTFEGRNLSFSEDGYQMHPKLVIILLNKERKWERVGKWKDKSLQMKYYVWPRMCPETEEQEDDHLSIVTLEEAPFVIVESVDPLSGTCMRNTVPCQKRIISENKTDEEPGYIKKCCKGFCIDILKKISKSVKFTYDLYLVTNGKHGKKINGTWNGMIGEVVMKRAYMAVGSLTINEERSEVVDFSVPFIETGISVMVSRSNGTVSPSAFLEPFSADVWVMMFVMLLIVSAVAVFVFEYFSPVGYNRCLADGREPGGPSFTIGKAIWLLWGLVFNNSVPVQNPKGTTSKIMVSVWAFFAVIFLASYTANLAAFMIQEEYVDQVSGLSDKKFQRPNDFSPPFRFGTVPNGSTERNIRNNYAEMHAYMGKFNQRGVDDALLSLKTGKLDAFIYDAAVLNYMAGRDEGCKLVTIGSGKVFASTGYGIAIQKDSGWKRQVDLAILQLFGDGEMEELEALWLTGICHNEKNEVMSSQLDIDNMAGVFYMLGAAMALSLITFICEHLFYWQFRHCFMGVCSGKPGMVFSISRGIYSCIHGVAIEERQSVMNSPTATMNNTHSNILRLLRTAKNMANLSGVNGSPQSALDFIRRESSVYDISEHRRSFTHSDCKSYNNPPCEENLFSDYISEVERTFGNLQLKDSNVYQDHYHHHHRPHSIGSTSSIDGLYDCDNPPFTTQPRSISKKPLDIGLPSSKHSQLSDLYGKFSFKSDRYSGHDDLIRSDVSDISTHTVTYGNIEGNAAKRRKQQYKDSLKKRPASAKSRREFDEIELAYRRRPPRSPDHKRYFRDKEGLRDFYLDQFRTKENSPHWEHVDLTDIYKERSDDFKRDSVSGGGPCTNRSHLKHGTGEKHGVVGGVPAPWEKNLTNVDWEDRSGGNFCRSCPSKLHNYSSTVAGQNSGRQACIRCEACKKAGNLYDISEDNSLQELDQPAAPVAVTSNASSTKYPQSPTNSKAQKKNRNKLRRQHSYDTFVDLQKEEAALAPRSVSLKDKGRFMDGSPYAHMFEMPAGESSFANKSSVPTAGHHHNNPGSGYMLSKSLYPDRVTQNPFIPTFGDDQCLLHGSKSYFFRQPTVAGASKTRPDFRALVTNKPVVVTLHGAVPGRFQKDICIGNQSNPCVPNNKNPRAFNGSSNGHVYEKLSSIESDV
Procedure: Missense mutations were introduced into rat cDNAs encoding GluN1-4a and GluN2B in the pGEM-HE vector using the QuikChange protocol (Stratagene) using the primers listed in Supplementary Table 2. These plasmids were then linearized with NotI and used as templates for cRNA synthesis (Ambion). A total mass of 5–10 ng cRNA at a 1:2 weight ratio of GluN1-4a and GluN2B transcripts was co-injected into defolliculated Xenopus laevis oocytes (EcoCyte Bioscience). […] Voltage clamp was achieved and current responses were recorded at a holding potential of –40 mV with a two-electrode voltage clamp amplifier (Warner) at room temperature (~23 °C). Currents were low-pass filtered at 10 Hz and digitized at 20 Hz by LabWindows/CVI (National Instruments). Maximal effective concentrations of glutamate and glycine (100 and 30 μM, respectively) were used in all recordings.

[3] = target: T3, GluN1-4a(Y109W)/GluN2B NMDA receptor (Rattus norvegicus, UniProt P35439+Q00960, Y109W); assay: TEVC concentration–response, GluN1-4a(Y109W) mutant; type: cell-based; details: pH 7.6; BAPTA (Table 3)
T3 construct: compared to that observed for full-length receptors in TEVC recordings; expressed in transfected cells; host or cells: Xenopus laevis oocytes, cRNA injection
T3 sequence (Q00960 27-1482, other chains not shown): as above
Procedure: (§1) Missense mutations were introduced into rat cDNAs encoding GluN1-4a and GluN2B in the pGEM-HE vector using the QuikChange protocol (Stratagene) using the primers listed in Supplementary Table 2. These plasmids were then linearized with NotI and used as templates for cRNA synthesis (Ambion). A total mass of 5–10 ng cRNA at a 1:2 weight ratio of GluN1-4a and GluN2B transcripts was co-injected into defolliculated Xenopus laevis oocytes (EcoCyte Bioscience). The oocytes were incubated in Barth’s solution containing 88 mM NaCl, 2.4 mM NaHCO3, 1 mM KCl, 0.33 mM Ca(NO3)2, 0.41 mM CaCl2, 0.82 mM MgSO4, and 5 mM HEPES, at a final pH of 7.4, supplemented with 0.1 mg mL^−1 gentamicin sulfate, 1 μg mL^−1 streptomycin, and 1 U mL^−1 penicillin at 15–19 °C. TEVC current recordings were performed 2–4 days after injection using an extracellular recording solution containing 90 mM NaCl, 10 mM HEPES, 1 mM KCl, 0.5 mM BaCl2, and 0.01 mM EDTA at either pH 6.9 or pH 7.6[39]. Voltage clamp was achieved and current responses were recorded at a holding potential of –40 mV with a two-electrode voltage clamp amplifier (Warner) at room temperature (~23 °C). Currents were low-pass filtered at 10 Hz and digitized at 20 Hz by LabWindows/CVI (National Instruments). Maximal effective concentrations of glutamate and glycine (100 and 30 μM, respectively) were used in all recordings.

[4] = target: T4, GluN1-4a/GluN2B (WT) NMDA receptor (Rattus norvegicus, UniProt P35439+Q00960); assay: TEVC concentration–response in Xenopus oocytes, wild type GluN1-4a/GluN2B; type: cell-based; details: for Ifenprodil DR, response at 0.01: ifenprodil at 0.01; for Ifenprodil DR, response at 0.01 / Ifenprodil DR, response at 0.03 / Ifenprodil DR, response at 0.1: relative to 100/100 G/G; for Ifenprodil DR, response at 0.03: ifenprodil at 0.03; for Ifenprodil DR, response at 0.1: ifenprodil at 0.1
T4 construct: compared to that observed for full-length receptors in TEVC recordings; expressed in transfected cells; host or cells: Xenopus laevis oocytes, cRNA injection
T4 sequence (Q00960 27-1482, other chains not shown): as above
Procedure: as §1, with “Maximal effective concentrations of glutamate and glycine (100 and 30 μM, respectively) were used in all recordings.” left out

[5] = target: GluN1b–GluN2B ATD heterodimer (Xenopus laevis; Rattus norvegicus, UniProt A0A1L8F5J9+Q00960, E186G/INS190[…]/N348D/N350Q/N61Q); assay: ITC, ifenprodil titrated into isolated GluN1b–GluN2B ATD used for crystallization; type: binding; details: pH 7.6
Sequence of GluN1b–GluN2B ATD heterodimer (Xenopus laevis; Rattus norvegicus, UniProt A0A1L8F5J9+Q00960, E186G/INS190[…]/N348D/N350Q/N61Q) (Q00960 32-394 N348D, other chains not shown): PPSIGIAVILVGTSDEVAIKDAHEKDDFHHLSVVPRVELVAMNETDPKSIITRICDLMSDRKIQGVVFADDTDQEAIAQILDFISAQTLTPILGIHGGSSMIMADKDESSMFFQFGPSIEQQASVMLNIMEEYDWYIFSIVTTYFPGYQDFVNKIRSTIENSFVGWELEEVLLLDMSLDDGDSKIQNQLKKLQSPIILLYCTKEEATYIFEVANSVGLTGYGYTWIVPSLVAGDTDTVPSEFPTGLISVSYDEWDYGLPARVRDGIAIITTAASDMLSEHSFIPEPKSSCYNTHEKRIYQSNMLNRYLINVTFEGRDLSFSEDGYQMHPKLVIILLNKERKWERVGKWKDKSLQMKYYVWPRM

[6] = target: GluN1b–GluN2B ATD heterodimer (Xenopus laevis; Rattus norvegicus, UniProt A0A1L8F5J9+Q00960, E186G/INS190SKKRNYENLDQLSYDNKRGPK/N348D/N350Q/N61Q); assay: as above; type: binding; details: pH 7.6

CC(C(O)c1ccc(O)cc1)N1CCC(Cc2ccccc2)CC1 (centres unmarked) [Ifenprodil, Ifenprodil hemitartrate]
Kd ([1]; pH 6.5): 249 ± 16 nM
Kd ([1]; pH 7.6): 226 ± 15 nM
n (ITC stoichiometry) ([1]; pH 6.5): 0.97 ± 0.01
n (ITC stoichiometry) ([1]; pH 7.6): 1.0 ± 0.01
% response, current at maximal ifenprodil potentiation [2]: ND, 105%^f nH ND (9)
% response, current at maximal ifenprodil potentiation [3]: ND, 115%^f nH ND (9)
nH ([4]; 1-4a/2B WT, pH7.6, BAPTA, ifenprodil): 0.8364 and 0.9502 and 1.0632 and 0.8875 and 0.8992 and 1.197 and 1.038
Ifenprodil DR, response at 0.01 ([4]; 1-4a/2B WT, pH7.6, BAPTA): 89.9 and 98.2 and 90 and 89 and 92.8 and 95.6 and 95.4
Ifenprodil DR, response at 0.01 ([4]; 1-4a/2B WT, pH7.6, BAPTA, mean): 92.9857
Ifenprodil DR, response at 0.03 ([4]; 1-4a/2B WT, pH7.6, BAPTA): 78.8 and 96.7 and 76.5 and 75.3 and 82 and 88.4 and 87
Ifenprodil DR, response at 0.03 ([4]; 1-4a/2B WT, pH7.6, BAPTA, mean): 83.5286
Ifenprodil DR, response at 0.1 ([4]; 1-4a/2B WT, pH7.6, BAPTA): 64.2 and 90.5 and 49.1 and 54.7 and 63.1 and 64.1 and 66.9
Ifenprodil DR, response at 0.1 ([4]; 1-4a/2B WT, pH7.6, BAPTA, mean): 64.6571
nH ([4]; 1-4a/2B WT, pH7.6, BAPTA, ifenprodil, mean): 0.9818
nH ([4]; Ifenprodil DR, 1-4a/2B WT, pH7.6, BAPTA, single oocyte recordings, row 'mean' = mean): 0.8875 and 0.8992 and 1.197 and 1.038 and 0.8364 and 0.9502 and 1.0632
nH ([4]; Ifenprodil DR, 1-4a/2B WT, pH7.6, BAPTA, single oocyte recordings, row 'mean' = mean, mean): 0.9818
% response ([4]; current at 1 μM ifenprodil, pH 7.6, BAPTA): 35%
nH ([4]; pH 7.6, BAPTA (Table 3)): 1.0
n (ITC stoichiometry) [5]: 0.98 ± 0.01
Kd [6]: 255 ± 11 nM
